Source: paper PMC9518264, “Design and synthesis of novel quinazolinone-based derivatives as EGFR inhibitors with antitumor activity” (Journal of Enzyme Inhibition and Medicinal Chemistry, 2022)

Assays:
SK-MEL-28 = assay: cells; assay type: cell-based; conditions: Homo sapiens; SK-MEL-28; 10 μM; read-out: growth inhibition % (GI%)
HS 578T = assay: cells; assay type: cell-based; conditions: Homo sapiens; HS 578T; 10 μM; read-out: growth inhibition % (GI%)
ACHN = assay: cells; assay type: cell-based; conditions: Homo sapiens, 10 μM, read-out: growth inhibition % (GI%)
MCF7 = assay: cells; assay type: cell-based; conditions: Homo sapiens; MCF7; 10 μM; read-out: growth inhibition % (GI%)
SK-OV-3 = assay: cells; assay type: cell-based; conditions: Homo sapiens; SK-OV-3; 10 μM; read-out: growth inhibition % (GI%)
KM12 = assay: cells; assay type: cell-based; conditions: Homo sapiens; KM12; 10 μM; read-out: growth inhibition % (GI%)
OVCAR-3 = assay: NCI 60 cell line antiproliferative screening (SRB), Ovarian cancer; conditions: Homo sapiens, OVCAR-3, read-out: growth inhibition % (GI%)
SR = assay: cells; assay type: cell-based; conditions: Homo sapiens, 10 μM, read-out: growth inhibition % (GI%)
NCI-H522 = assay: cells; assay type: cell-based; conditions: Homo sapiens; NCI-H522; 10 μM; read-out: growth inhibition % (GI%)
A549/ATCC = assay: cells; assay type: cell-based; conditions: Homo sapiens; A549/ATCC; 10 μM; read-out: growth inhibition % (GI%)
HCT-116 = assay: cells; assay type: cell-based; conditions: Homo sapiens; HCT-116; 10 μM; read-out: growth inhibition % (GI%)
OVCAR-5 = assay: cells; assay type: cell-based; conditions: Homo sapiens; OVCAR-5; 10 μM; read-out: growth inhibition % (GI%)
SK-MEL-5 = assay: cells; assay type: cell-based; conditions: Homo sapiens; SK-MEL-5; 10 μM; read-out: growth inhibition % (GI%)
SNB-75 = assay: cells; assay type: cell-based; conditions: Homo sapiens; SNB-75; 10 μM; read-out: growth inhibition % (GI%)
SNB-19 = assay: cells; assay type: cell-based; conditions: Homo sapiens; SNB-19; 10 μM; read-out: growth inhibition % (GI%)
A498 = assay: cells; assay type: cell-based; conditions: Homo sapiens; A498; 10 μM; read-out: growth inhibition % (GI%)
MDA-MB-231/ATCC = assay: NCI 60 cell line antiproliferative screening (SRB), Breast cancer; assay type: cell-based; conditions: Homo sapiens, MDA-MB-231, read-out: growth inhibition % (GI%)
HOP-62 = assay: cells; assay type: cell-based; conditions: Homo sapiens; HOP-62; 10 μM; read-out: growth inhibition % (GI%)
SF-539 = assay: cells; assay type: cell-based; conditions: Homo sapiens; SF-539; 10 μM; read-out: growth inhibition % (GI%)
SK-MEL-2 = assay: cells; assay type: cell-based; conditions: Homo sapiens; SK-MEL-2; 10 μM; read-out: growth inhibition % (GI%)
MOLT-4 = assay: cells; assay type: cell-based; conditions: Homo sapiens; MOLT-4; 10 μM; read-out: growth inhibition % (GI%)
[1] = system: panel of 60 tumour cell lines; assay: NCI 60 cell line antiproliferative screening (SRB), whole panel or subpanels (means, ranges, words); assay type: cell-based, human
SW-620 = assay: cells; assay type: cell-based; conditions: Homo sapiens; SW-620; 10 μM; read-out: growth inhibition % (GI%)
HCC-2998 = assay: cells; assay type: cell-based; conditions: Homo sapiens; HCC-2998; 10 μM; read-out: growth inhibition % (GI%)
EKVX = assay: cells; assay type: cell-based; conditions: Homo sapiens, 10 μM, read-out: growth inhibition % (GI%)
TK-10 = assay: cells; assay type: cell-based; conditions: Homo sapiens; TK-10; 10 μM; read-out: growth inhibition % (GI%)
BT-549 = assay: cells; assay type: cell-based; conditions: Homo sapiens; BT-549; 10 μM; read-out: growth inhibition % (GI%)
NCI-H226 = assay: cells; assay type: cell-based; conditions: Homo sapiens; NCI-H226; 10 μM; read-out: growth inhibition % (GI%)
NCI/ADR-RES = assay: cells; assay type: cell-based; conditions: Homo sapiens, 10 μM, read-out: growth inhibition % (GI%)
LOX IMIV = assay: cells; assay type: cell-based; conditions: Homo sapiens, 60 cell; LOX IMIV; 10 μM; read-out: growth inhibition % (GI%)
DU-145 = assay: cells; assay type: cell-based; conditions: Homo sapiens; DU-145; 10 μM; read-out: growth inhibition % (GI%)
OVCAR-4 = assay: cells; assay type: cell-based; conditions: Homo sapiens; OVCAR-4; 10 μM; read-out: growth inhibition % (GI%)
786-0 = assay: cells; assay type: cell-based; conditions: Homo sapiens; 786-0; 10 μM; read-out: growth inhibition % (GI%)
CCRF-CEM = assay: cells; assay type: cell-based; conditions: Homo sapiens, 10 μM, read-out: growth inhibition % (GI%)
U251 = assay: cells; assay type: cell-based; conditions: Homo sapiens, U-251; U251; 10 μM; read-out: growth inhibition % (GI%)
HOP-92 = assay: cells; assay type: cell-based; conditions: Homo sapiens; HOP-92; 10 μM; read-out: growth inhibition % (GI%)
RPMI-8226 = assay: cells; assay type: cell-based; conditions: Homo sapiens; RPMI-8226; 10 μM; read-out: growth inhibition % (GI%)
UACC-257 = assay: cells; assay type: cell-based; conditions: Homo sapiens; UACC-257; 10 μM; read-out: growth inhibition % (GI%)
MALME-3M = assay: cells; assay type: cell-based; conditions: Homo sapiens; MALME-3M; 10 μM; read-out: growth inhibition % (GI%)
K-562 = assay: cells; assay type: cell-based; conditions: Homo sapiens, K562; K-562; 10 μM; read-out: growth inhibition % (GI%)
HCT-15 = assay: cells; assay type: cell-based; conditions: Homo sapiens; HCT-15; 10 μM; read-out: growth inhibition % (GI%)
IGROV1 = assay: cells; assay type: cell-based; conditions: Homo sapiens, IGROV-1; IGROV1; 10 μM; read-out: growth inhibition % (GI%)
SF-268 = assay: cells; assay type: cell-based; conditions: Homo sapiens; SF-268; 10 μM; read-out: growth inhibition % (GI%)
NCI-H322M = assay: cells; assay type: cell-based; conditions: Homo sapiens, 10 μM, read-out: growth inhibition % (GI%)
COLO-205 = assay: cells; assay type: cell-based; conditions: Homo sapiens; COLO-205; 10 μM; read-out: growth inhibition % (GI%)
T-47D = assay: cells; assay type: cell-based; conditions: Homo sapiens, T47D; T-47D; 10 μM; read-out: growth inhibition % (GI%)

COc1ccc(Oc2ccc(C=NNC(=O)CSc3nc4ccccc4c(=O)n3-c3ccccc3)cc2)cc1 [6c, N'-(4–(4-methoxyphenoxy)benzylidene)-2-((4-oxo-3-phenyl-3,4-dihydroquinazolin-2-yl)thio)acetohydrazide]
no activity: antiproliferative activity against all tested cell lines ([1]; 10 μM single dose)
< 0%: Mean growth inhibition % (mean GI%) ([1]; mean over the cell line panel, 10 μM)
17.2%: inhibition at 10 µM (A498)
< 15%: inhibition at 10 µM (SK-MEL-28) | inhibition at 10 µM (HS 578T) | inhibition at 10 µM (ACHN) | inhibition at 10 µM (MCF7) | inhibition at 10 µM (SK-OV-3) | inhibition at 10 µM (KM12) | inhibition at 10 µM (OVCAR-3) | inhibition at 10 µM (SR) | inhibition at 10 µM (NCI-H522) | inhibition at 10 µM (A549/ATCC) | inhibition at 10 µM (HCT-116) | inhibition at 10 µM (OVCAR-5) | inhibition at 10 µM (SK-MEL-5) | inhibition at 10 µM (SNB-75) | inhibition at 10 µM (SNB-19) | inhibition at 10 µM (MDA-MB-231/ATCC) | inhibition at 10 µM (HOP-62) | inhibition at 10 µM (SF-539) | inhibition at 10 µM (SK-MEL-2) | inhibition at 10 µM (MOLT-4) | inhibition at 10 µM (SW-620) | inhibition at 10 µM (HCC-2998) | inhibition at 10 µM (EKVX) | inhibition at 10 µM (TK-10) | inhibition at 10 µM (BT-549) | inhibition at 10 µM (NCI-H226) | inhibition at 10 µM (NCI/ADR-RES) | inhibition at 10 µM (LOX IMIV) | inhibition at 10 µM (DU-145) | inhibition at 10 µM (OVCAR-4) | inhibition at 10 µM (786-0) | inhibition at 10 µM (CCRF-CEM) | inhibition at 10 µM (U251) | inhibition at 10 µM (HOP-92) | inhibition at 10 µM (RPMI-8226) | inhibition at 10 µM (UACC-257) | inhibition at 10 µM (MALME-3M) | inhibition at 10 µM (K-562) | inhibition at 10 µM (HCT-15) | inhibition at 10 µM (IGROV1) | inhibition at 10 µM (SF-268) | inhibition at 10 µM (NCI-H322M) | inhibition at 10 µM (COLO-205) | inhibition at 10 µM (T-47D)
0%: inhibition at 10 µM ([1]; Homo sapiens, 60 cell, mean over the cell line panel, 10 μM, read-out: Mean growth inhibition % (mean GI%))
